Measured values taken from publication PMC11040934, “PI3Kγδ inhibition suppresses key disease features in a rat model of asthma” (Respiratory Research, 2024).
Each block holds one compound with its values, some of them ahead of it.

What was measured:
asthma patients = conditions: cited from earlier work
PI3K pathway (pAkt) = assay: Rat model of allergic asthma: lung tissue pAkt (T308), target engagement; format: in vivo, Brown Norway rat; conditions: i.t. 1 hr before OVA challenge; AZD8154 0.02, 0.1, 0.3 mg/kg, budesonide 3 mg/kg; lung 2 hrs after challenge
Protocol: (§1) Male, adult, Brown Norway rats were obtained from Charles River Germany at a body weight range of 250-300 g. Animals were housed in temperature controlled individually ventilated cages in groups of 4 with food and water provided ad libitum. Animals underwent acclimatisation for at least 1 week prior to experimentation. Experiments were performed in accordance with the UK Home Office guidelines for animal welfare based on the Animals (Scientific Procedures) Act of 1986 and the ARRIVE guidelines (Fig. E2).
Initially a time course study was performed, followed by a characterisation study with compound & clinical comparator. […]
5 μL of supernatant (1:50 dilution) was taken for Bradford Assay which was run according to manufacturers’ instructions (BioRad, USA). […] Absorbance was measured using a spectrophotometer and total protein values interpolated to standard curve (595 nm; Spectromax, UK).
10 μg of protein from lung tissue extract were utilized in pAkt (T308); pSTAT3, pSTAT4 & STAT5a, b (Phospho-STAT Panel kit) MSD Assay plates (Meso Scale Delivery, USA) and run according to manufacturers’ instructions. Arbitrary electrochemiluminescence signals were read, the blank subtracted and values determined in each plate using a MSD S-Plex plate reader (Meso Scale Delivery, USA).

[1] = test system: Brown Norway rats, OVA sensitised and challenged; assay: Rat model of allergic asthma: BAL cellular inflammation; format: in vivo, Brown Norway rat; conditions: BAL 24 hrs after OVA challenge; i.t. dosing
Protocol: as §1
(§2) Initially a time course study was performed, followed by a characterisation study with compound & clinical comparator. For both studies, rats were sensitised on day 0, 14 and 21 by an intraperitoneal (i.p.) injection of 4 mL/kg (1 mL/rat) of ovalbumin (OVA;100 μg/rat) in Imject™ Alum (20 mg/rat aluminium hydroxide and 20 mg/rat magnesium hydroxide) or sham sensitised (Saline [Sal] in Imject™ Alum). On day 28 rats were challenged with 1% (w/v) aerosolised OVA in isotonic saline, or sham challenged with isotonic saline (30 mins).
Following blood collection, rats underwent tracheostomy and were cannulated. Rats were lavaged and bronchoalveolar lavage (BAL) fluid was collected (2 × 3 mL RPMI, 30 secs, 70% vol. retained). Slides were prepared using 100 μL of neat BAL, centrifuged (700 rpm, 5 mins, RT, low acceleration; Cytospin 2, Shandon, Runcorn, UK). 800 μL of neat BAL was collected and centrifuged (800×g, 10 mins, 4 °C). Supernatant was collected and stored (− 80 °C), and cell pellet was resuspended (200 μL, RPMI), total leukocytes were attained using a Sysmex XP-300 automated cell counter (Sysmex Ltd., Milton Keynes, UK). Remaining BAL was centrifuged (800×g, 10 mins, 4 °C) and supernatant collected and stored (− 80 °C).
BAL cytospin slides were placed in an automated stainer (Hematek 2000, Ames. Co., USA) and stained with a Modified-Wright stain (Siemens, Germany). Differential cell counts using a light microscope were performed based on morphological criteria were performed to determine percentages of macrophages/monocytes, lymphocytes, neutrophils & eosinophils. Total numbers of each distinct cell type were determined based on total leukocyte numbers.

[2] = test system: Brown Norway rats, OVA sensitised and challenged; assay: Rat model of allergic asthma: late asthmatic response (Penh, whole body plethysmography); format: in vivo, Brown Norway rat; conditions: 1-6 hrs after OVA challenge; i.t. dosing
Protocol: as §1
as §2, with “On day 28 rats were challenged with 1% (w/v) aerosolised OVA in isotonic saline, or sham challenged with isotonic saline (30 mins).” left out
In both studies, 30 mins post-challenge, rats were placed unrestrained in Perspex plethysmographs connected to bias flow pumps (DSI Europe Ltd), with food and water ad libitum. 55 mins post-challenge, a five mins baseline recording was taken and the average penh and area under the curve (AUC) was recorded at 10 mins intervals for a total duration of 5 hrs and was used for analysis (DSI Europe Ltd).

rat PI3Kγ = rat PI3Kγ (Rattus norvegicus, UniProt D3ZFJ0); assay: PI3K γ assay: CXCL1/CINC-1-stimulated CD11b expression on rat whole blood neutrophils (FACS); format: cell-based; conditions: reference inhibitors, at the relevant concentration
Protocol: (§3) PI3K γ assay: whole blood from male Sprague Dawley rat was collected in heparin coated tubes and pre-treated (1 hr., 37 °C, 5% CO2) with vehicle DMSO or PI3K inhibitors followed by stimulation with Rat CXCL1/CINC-1 (515-CN-050, R&D) at 500 ng/mL (EC80 determined in house; 1 hr., RT). Next, cells were stained with Fc block (550,273, BD bioscience, 1:100; 20 mins, RT), CD45R-B220-PeCy7 (HIS24) (25–0460-82, eBioscience, 1:100), CD43-PE (W3/13) (202,812, Biolegend, 1:100), HIS48-FITC (11–0570-82, eBioscience, 1:100), CD11b-APC (562,102, BD Bioscience, 1:100). Cells were lysed and fixed with BD FACS lysing solution (349,202, BD Biosciences; 45 mins, RT) before FACS acquisition (BD LSRFortessa™). Data were analysed using FlowJo 9.9 software (TreeStar). FACS gating strategy: lymphocytes (FSC-A vs SSC-A), doublets exclusion (FSC-W vs FSC-H), neutrophil identification B220-, HIS48hi, CD43hi, SSC-Ahi, geom. MFI for CD11b on neutrophils. IC50 values were determined in Graph Pad through a nonlinear fit on log transform data: log inhibitor vs response, variable slope, 4 parameters. Fraction unbound in diluted whole blood is calculated using the following equation: fu^′=DF·fub/1+DF-1·fub where fu’ is the fraction unbound in diluted whole blood; fub is the fraction unbound in undiluted whole blood; DF is the dilution factor. Fraction unbound in 100% whole blood (fub) is calculated as fup/BP, where fup is the experimentally determined fraction unbound in undiluted plasma and BP is the experimentally determined blood to plasma partition ratio of drug Table 1.

rat PI3Kδ = target: T1, rat PI3Kδ (Rattus norvegicus, UniProt A0A8I5Y949); assay: PI3K δ assay: anti-IgM-stimulated CD86 expression on rat splenic B cells (FACS); format: cell-based; conditions: reference inhibitors, at the relevant concentration
T1 sequence (A0A8I5Y949 1-1047): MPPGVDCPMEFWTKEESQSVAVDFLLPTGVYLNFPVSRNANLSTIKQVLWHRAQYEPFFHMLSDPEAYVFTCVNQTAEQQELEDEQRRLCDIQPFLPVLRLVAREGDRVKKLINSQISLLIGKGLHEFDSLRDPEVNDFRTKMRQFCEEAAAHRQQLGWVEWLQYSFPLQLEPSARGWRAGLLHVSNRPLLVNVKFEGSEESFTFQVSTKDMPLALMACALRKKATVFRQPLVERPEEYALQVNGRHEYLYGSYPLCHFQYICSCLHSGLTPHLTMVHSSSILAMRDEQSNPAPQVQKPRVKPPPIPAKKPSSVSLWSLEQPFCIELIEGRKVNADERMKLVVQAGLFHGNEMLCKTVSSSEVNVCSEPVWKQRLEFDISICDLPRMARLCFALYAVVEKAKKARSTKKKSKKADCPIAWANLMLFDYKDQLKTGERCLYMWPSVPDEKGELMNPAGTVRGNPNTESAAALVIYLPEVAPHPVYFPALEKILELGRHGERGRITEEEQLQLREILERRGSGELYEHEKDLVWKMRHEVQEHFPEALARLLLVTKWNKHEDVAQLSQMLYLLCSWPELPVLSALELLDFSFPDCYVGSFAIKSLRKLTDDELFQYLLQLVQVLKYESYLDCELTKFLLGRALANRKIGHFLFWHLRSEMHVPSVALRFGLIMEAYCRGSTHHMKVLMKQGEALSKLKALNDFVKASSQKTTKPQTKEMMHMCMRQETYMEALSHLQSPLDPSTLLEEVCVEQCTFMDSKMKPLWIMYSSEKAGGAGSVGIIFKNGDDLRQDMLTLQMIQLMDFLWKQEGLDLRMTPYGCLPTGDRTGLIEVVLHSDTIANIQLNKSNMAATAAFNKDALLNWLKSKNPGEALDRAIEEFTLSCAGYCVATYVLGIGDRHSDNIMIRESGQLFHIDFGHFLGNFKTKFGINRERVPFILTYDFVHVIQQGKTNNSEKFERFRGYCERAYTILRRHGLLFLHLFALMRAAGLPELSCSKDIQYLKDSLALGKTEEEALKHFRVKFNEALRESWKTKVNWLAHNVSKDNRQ
Protocol: (§4) PI3K δ assay: single cell suspension was obtained from the spleen of male Sprague Dawley rat; cells were cultured in RPMI containing heat-inactivated 10% FBS, pre-treated (1 hr., 37 °C, 5% CO2) with vehicle DMSO or PI3K inhibitors, followed by stimulation with AffiniPure F(ab’)2 Fragment Goat Anti-Rat IgM, μ chain specific, Jackson Immunoresearch (112–006-075) at 5 μg/mL (EC80 determined in house; 20–22 hrs). Then, cells were washed with FACS buffer (2% FBS, […]) and stained (15 mins, 4 °C) with Fc block (1:100, 550,273, BD bioscience), LIVE/DEAD Fixable Aqua Dead Cell Stain Kit (L34957, Invitrogen, 1:300), CD45R (B220)-PeCy7 (HIS24) (25–0460-82, eBioscience, 1:100), CD3-AF647 (IF4) (201,408, Biolegend, 1:100), CD86-FITC (24F) (200,305, Biolegend, 1:50). Cells were acquired on the Flow Cytometer (BD LSRFortessa™) and analysed using FlowJo 9.9 software (TreeStar). FACS gating strategy: lymphocytes (FSC-A vs SSC-A), doublets exclusion (FSC-W vs FSC-H), live cells (Aqua-530-), B cell identification CD3- B220 + % of positive B cells for CD86. IC50 values were determined in Graph Pad through a nonlinear fit on log transform data: log inhibitor vs response, variable slope, 4 parameters. Fraction unbound in in vitro assay is calculated using the following equation: fu^′=DF·fup/1+DF-1·fup where fu’ is the fraction unbound in assay media; fup is the experimentally determined fraction unbound in undiluted human plasma; DF is the dilution factor (fold difference between protein concentration in human plasma and assay media, using an albumin concentration of 600 μM (40 g/L) for undiluted plasma) Table 2.

[3] = Rat plasma protein binding, blood to plasma ratio, unbound fraction in whole blood; format: in vitro ADME; conditions: for Rat fub: fraction unbound in 100% whole blood, fup/BP; for fraction unbound: rat
Protocol: as §3, with “Next,” for “PI3K γ assay: whole blood from male Sprague Dawley rat was collected in heparin coated tubes and pre-treated (1 hr., 37 °C, 5% CO2) with vehicle DMSO or PI3K inhibitors followed by stimulation with Rat CXCL1/CINC-1 (515-CN-050, R&D) at 500 ng/mL (EC80 determined in house; 1 hr., RT). Next,”

[4] = Human plasma protein binding and unbound fraction in assay media; format: in vitro ADME
Protocol: as §4

Sequence of rat PI3Kγ (D3ZFJ0 1-1102): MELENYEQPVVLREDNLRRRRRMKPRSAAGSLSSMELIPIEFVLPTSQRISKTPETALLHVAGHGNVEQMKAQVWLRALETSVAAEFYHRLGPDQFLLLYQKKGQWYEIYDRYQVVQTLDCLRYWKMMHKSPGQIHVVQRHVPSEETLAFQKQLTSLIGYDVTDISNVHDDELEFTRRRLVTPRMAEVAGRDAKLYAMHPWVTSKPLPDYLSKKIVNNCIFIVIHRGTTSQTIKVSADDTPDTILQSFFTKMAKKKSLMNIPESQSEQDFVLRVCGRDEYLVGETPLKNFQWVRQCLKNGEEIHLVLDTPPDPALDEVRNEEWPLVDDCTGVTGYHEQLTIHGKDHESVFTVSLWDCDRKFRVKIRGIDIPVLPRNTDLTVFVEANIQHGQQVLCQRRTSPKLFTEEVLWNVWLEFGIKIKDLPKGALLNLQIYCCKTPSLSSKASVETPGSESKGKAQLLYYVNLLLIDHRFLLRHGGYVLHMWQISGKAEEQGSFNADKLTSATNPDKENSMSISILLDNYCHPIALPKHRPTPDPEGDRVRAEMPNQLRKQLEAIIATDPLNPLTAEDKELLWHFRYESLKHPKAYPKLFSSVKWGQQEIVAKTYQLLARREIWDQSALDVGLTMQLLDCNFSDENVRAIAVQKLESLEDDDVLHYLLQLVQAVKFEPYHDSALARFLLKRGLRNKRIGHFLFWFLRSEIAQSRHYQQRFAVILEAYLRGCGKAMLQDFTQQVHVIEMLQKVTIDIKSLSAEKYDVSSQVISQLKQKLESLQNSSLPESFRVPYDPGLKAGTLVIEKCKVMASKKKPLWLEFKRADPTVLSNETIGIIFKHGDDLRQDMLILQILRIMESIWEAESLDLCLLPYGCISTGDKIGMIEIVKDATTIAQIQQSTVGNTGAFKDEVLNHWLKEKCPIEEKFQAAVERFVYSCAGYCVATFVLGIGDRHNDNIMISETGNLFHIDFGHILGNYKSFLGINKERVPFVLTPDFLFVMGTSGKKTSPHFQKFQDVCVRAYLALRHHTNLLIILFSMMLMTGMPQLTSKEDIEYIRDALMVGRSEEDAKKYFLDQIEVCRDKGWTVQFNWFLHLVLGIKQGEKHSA

Structure (SMILES): C[C@H](Nc1ncnc2nc[nH]c12)c1cc2cccc(Cl)c2c(=O)n1-c1ccccc1 [duvelisib]
effect in clinical asthma trials (asthma patients; oral): beneficial effects

Structure (SMILES): CCCC1O[C@@H]2C[C@H]3[C@@H]4CCC5=CC(=O)C=C[C@]5(C)[C@H]4[C@@H](O)C[C@]3(C)[C@]2(C(=O)CO)O1 (some centres unmarked) [budesonide]
lung tissue pAkt levels (PI3K pathway (pAkt)): dramatic inhibition
BAL eosinophils [1]: reversing these key features to basal levels
BAL neutrophils [1]: reversing these key features to basal levels
BAL total leukocytes [1]: reversing these key features to basal levels
LAR (Penh, AUC) [2]: inhibiting the lung function change

Structure (SMILES): CC(C)N1CCN(Cc2cnc(-c3cc(-c4cccc5[nH]ccc45)cc4[nH]ncc34)o2)CC1 [Nemarisilib]
asthma symptoms in clinical trials (asthma patients; inhaled): no improvement in asthma symptoms
cough propensity in clinical trials (asthma patients; inhaled): increase in cough propensity

effect in PI3Kγ assay (CD11b expression) (rat PI3Kγ): blocked their respective assay
effect in PI3Kδ assay (CD86 expression) (rat PI3Kδ): had no impact on the other assay
Rat fub [3]: 0.200
Structure (SMILES): CC(=O)Nc1nc(C)c(-c2cc3c(c(S(C)(=O)=O)c2)C(=O)N([C@@H](C)C2CC2)C3)s1 [AZD3458]

effect in PI3Kγ assay (CD11b expression) (rat PI3Kγ): had no impact on the other assay
effect in PI3Kδ assay (CD86 expression) (rat PI3Kδ): blocked their respective assay
Rat B/P ratio ([3]; blood to plasma partition ratio): 0.88
Rat fub [3]: 0.050
fraction unbound ([3]; diluted whole blood (PI3K γ assay), fraction unbound in diluted whole blood, DF 1.05 (γ assay), read-out: fu’): 0.0524
fraction unbound ([3]; plasma, rat plasma, fraction unbound, read-out: Rat ppb (fu, %)): 0.044
fraction unbound ([3]; plasma, undiluted rat plasma, fraction, read-out: Rat plasma fu): 0.044
fraction unbound ([4]; human plasma, fraction unbound, read-out: Human ppb (fu, %)): 0.021
fraction unbound ([4]; human, assay media (PI3K δ assay), fraction unbound in assay media (δ assay, RPMI 10% FBS), read-out: Fu’): 0.177
Structure (SMILES): CC(C)N1CCN(Cc2cnc(-c3cc(-c4cccc5[nH]ccc45)cc4[nH]ncc34)o2)CC1 [GSK2269557]
